Assay results as given in patent US5593970A, “Heterocyclic anthracycline analogs” (priority 1994, dated 1997).
Counter-ions that a name gives are not always drawn. Like-named read-outs stand apart in the source and are kept apart here.

Legend:
[1] = test system: HT29; test: Soft agar colony formation disk diffusion assay; format: cell-based, human
From the text: A more elaborate version of this fundamental assay, the soft agar colony formation disk diffusion assay was used. […] The effect of the test drug against tumoral cells could be measured by its inhibitory capacity against colony formation after the delivery of the compound, in different concentrations on an filter disk(4). A modified technique of this assay was used in order to investigate the antiproliferative activity of candidate compounds. Tumoral cells from solid tumors and ascitic lines were plated separately in a two layer agar matrix. Cell lines to be tested were suspended in an upper layer of 0.4% Noble agar (Difco#00142-01) in RPMI-1066 (Gibco#3201875) at a yield varying between 10^4 to 2×10^5 cells per 60 mm Petri dish. Plating efficiency was determined for each line in order to achieve an optimal number of colonies per dish. […] The bottom layer consisted of 0.8% Noble agar, 0.8% Tryptic Soy Broth (difco#0037001)in CMRL-1066/Fischer's. The bottom layers were used within 2 and 9 days of preparation. Plated dishes (bottom layer of agar, upper layer of cells and administered drug were incubated in humidified atmosphere at 37° C., 5% CO2 for 10-20 days depending upon the time necessary to observe adequate colonies (defined as a cell aggregate of more than 50 cells) both control and drug inhibited. Drugs were administered on a paper filter disk (Whatman No. 1) of 6.5 mm diameter placed on the upper layer at 1/3 distance from the edge of the dish. The anti-clonogenic activity of the compounds was measured as the zone of inhibition from the disk edge to the most proximal colonies. This zone of inhibition was checked on an inverted microscope (40×) and was measured with a micrometer mounted in the eyepiece. The ocular micrometer was calibrated with a stage micrometer set for a particular combination of ocular and objective lenses. […] We made a modification of the initial technique by not plating a solid tumor and a leukemia simultaneously in the same Petri dish. […] HUMAN TUMORS. […] LS180 (13) and BE1(14) were obtained from the Oncology Dept. of the Montreal General Hospital. […] Cell lines were routinely passaged twice a week by trypsinization and maintained in 25, or 75-sq. cm Falcon Plastic flasks at 37° C., 5% CO2 in humidified atmosphere. Both compounds were dissolved in DMSO (1 mg/100 ul) and brought to final volume (250 ul) with Millipore deionized sterile water. Further dilutions were made with […] volume of 25 ul of freshly prepared solution was placed on the filter disk and allowed to dry.

[2] = test system: LL; test: Soft agar colony formation disk diffusion assay; format: cell-based, murine
From the text: (§1) A more elaborate version of this fundamental assay, the soft agar colony formation disk diffusion assay was used. This assay defines the relative activity of one particular drug versus a tumoral cell line type. The effect of the test drug against tumoral cells could be measured by its inhibitory capacity against colony formation after the delivery of the compound, in different concentrations on an filter disk(4). A modified technique of this assay was used in order to investigate the antiproliferative activity of candidate compounds. Tumoral cells from solid tumors and ascitic lines were plated separately in a two layer agar matrix. Cell lines to be tested were suspended in an upper layer of 0.4% Noble agar (Difco#00142-01) in RPMI-1066 (Gibco#3201875) at a yield varying between 10^4 to 2×10^5 cells per 60 mm Petri dish. Plating efficiency was determined for each line in order to achieve an optimal number of colonies per dish. Plates were examined before drug administration to confirm a uniform dispersion of single cells. The bottom layer consisted of 0.8% Noble agar, 0.8% Tryptic Soy Broth (difco#0037001)in CMRL-1066/Fischer's. The bottom layers were used within 2 and 9 days of preparation. Plated dishes (bottom layer of agar, upper layer of cells and administered drug were incubated in humidified atmosphere at 37° C., 5% CO2 for 10-20 days depending upon the time necessary to observe adequate colonies (defined as a cell aggregate of more than 50 cells) both control and drug inhibited. Drugs were administered on a paper filter disk (Whatman No. 1) of 6.5 mm diameter placed on the upper layer at 1/3 distance from the edge of the dish. The anti-clonogenic activity of the compounds was measured as the zone of inhibition from the disk edge to the most proximal colonies. This zone of inhibition was checked on an inverted microscope (40×) and was measured with a micrometer mounted in the eyepiece. The ocular micrometer was calibrated with a stage micrometer set for a particular combination of ocular and objective lenses. […] We made a modification of the initial technique by not plating a solid tumor and a leukemia simultaneously in the same Petri dish. Anti-clonogenic tests performed on leukemia cell line have helped in the discovery of the majority of current clinically used cytostatic drugs. Our tests on solid tumor lines (animal or human) may help define active compounds with solid tumor specificity. […] Murine tumors were maintained IN VIVO in order to diminish the selection of subpopulations of cells normally present in the heterogenous IN VIVO tumor. The actual drug sensitivity assay was done IN VITRO. For these experiments cells from freshly excised tumors or from ascitic fluids were maintained in RPMI-1066. Both compounds were dissolved in DMSO (1 mg/100 ul) and brought to final volume (250 ul) with Millipore deionized sterile water. Further dilutions were made with […] volume of 25 ul of freshly prepared solution was placed on the filter disk and allowed to dry.

[3] = test system: P388; test: Soft agar colony formation disk diffusion assay; format: cell-based, murine
From the text: as §1

[4] = test system: B16; test: Soft agar colony formation disk diffusion assay; format: cell-based, murine
From the text: as §1

[5] = test system: P388/ADR; test: Soft agar colony formation disk diffusion assay; format: cell-based, murine
From the text: as §1

[6] = test system: MATB/ADR; test: Soft agar colony formation disk diffusion assay; format: cell-based, rat
How it was run: (§2)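 Read-out: zone of inhibition, disk edge to most proximal colony (>50 cells), measured by ocular micrometer at 40×. Two-layer agar, 10^4 to 2×10^5 cells per dish, drug on filter disk, 37° C., 5% CO2, 10-20 days.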

[7] = test system: MATB.WT; test: Soft agar colony formation disk diffusion assay; format: cell-based, rat
How it was run: as §2

[8] = test system: SKOV3; test: Microculture tetrazolium assay; format: cell-based; conditions: read-out: IC50
[9] = test system: SKVLB; test: Microculture tetrazolium assay; format: cell-based; conditions: for VLB/OV3: IC50 ratio SKVLB/SKOV3; for IC50: SKVLB, read-out: IC50
[10] = test system: T47D; test: Microculture tetrazolium assay; format: cell-based; conditions: read-out: IC50
[11] = test system: M5076; test: Soft agar colony formation disk diffusion assay; format: cell-based, murine
From the text: as §1

Row | SMILES | zone of inhibition ([1]; 10 μg/DISK) [Zone Units] | zone of inhibition ([1]; 100 μg/DISK) [Zone Units] | zone of inhibition ([2]; 100 μg/DISK) [Zone Units] | zone of inhibition ([3]; 10 μg/DISK) [Zone Units] | zone of inhibition ([3]; 100 μg/DISK) [Zone Units] | zone of inhibition ([4]; 10 μg/DISK) [Zone Units] | zone of inhibition ([4]; 100 μg/DISK) [Zone Units] | zone of inhibition ([5]; 10 μg/DISK) [Zone Units] | zone of inhibition ([5]; 100 μg/DISK) [Zone Units] | zone of inhibition ([6]; 10 μg/DISK) [Zone Units] | zone of inhibition ([6]; 100 μg/DISK) [Zone Units] | zone of inhibition ([7]; 10 μg/DISK) [Zone Units] | zone of inhibition ([7]; 100 μg/DISK) [Zone Units] | IC50 ([8]; Homo sapiens, SK-OV-3, SKOV3) [µM] | VLB/OV3 [9] | IC50 [9] [µM] | IC50 ([10]; Homo sapiens) [µM] | zone of inhibition ([11]; 100 μg/DISK) [Zone Units] | zone of inhibition ([11]; 10 μg/DISK) [Zone Units] | also measured
1 | COC(=O)[C@@H]1CC2=C(C(=O)c3c(c(OC)c4ccccc4c3O)C2=O)[C@@H](O[C@H]2C[C@H](NC(=O)C(F)(F)F)[C@H](O)[C@H](C)O2)O1 (mixture of isomers) [BCH-674, (1'S,1S,3R) and 1'S,1R,3S) Methyl(11-hydroxy-6-methoxy-1-[2',3',6'-trideoxy-3-trifluoroacetamido-4'-hydroxy-L-lyxohexopyranose]-5,12-dioxo-3,4,5,12-tetrahydroanthra-ceno[2,3-c]pyran-3-yl) formate] | 122.2 ± 80.6 | 36.6 ± 17.2 | 115.9 ± 8.0 | 30.5 ± 25.8 | 137.2 ± 38.8 | 91.5 ± 60.3 | 122.0 ± 86.2 | 0 | 150.0 ± 8.0 | 24.4 ± 8.6 | 213.5 ± 25.8 | 30.5 ± 13.0 | 198.2 ± 21.5 | 7.46 | 0.91 | 6.81 | 4.17 |  |  | zone of inhibition ([2]; 10 μg/DISK): 54.9 ± 8.6 Zone Units
2 | CCOC(=O)C1CC2=C(CO1)C(=O)c1cc3ccccc3c(O)c1C2=O (stereo not shown) [BCH-653, Ethyl(6 and 11 hydroxy-5,12-dioxo-3,4,5,12-tetrahydro-anthraceno[2,3-c]pyran-3-yl)]formate] |  | 42.7 ± 8.6 | 18.3 ± 0.0 |  | 64.0 ± 4.2 |  | 0 |  | 66.8 ± 8.2 |  | 0 |  | 0 |  |  |  |  | 85.4 ± 25.8 |  | 
3 | CCOC(=O)C1Cc2c(c(OC)c3c(c2OC)C(=O)c2ccccc2C3=O)CS1 (stereo not shown) [BCH-717] | 0 | 0 |  | 0 | 122.0 ± 0.0 | 0 | 106.0 ± 64.3 | 0 | 0 | 0 | 0 | 0 | 0 | > 100 |  | > 100 | > 100 | 39.5 ± 30.4 | 18.3 | 
4 | CC(=O)Oc1c2c(c(O)c3ccccc13)C(=O)C1=C(CC(C(C)=O)OC1)C2=O (stereo not shown) [BCH-721] | 55.5 ± 8.0 | 121.5 ± 43.1 |  | 45.5 ± 21.9 | 137.0 ± 21.2 | 76.0 ± 21.2 | 198.0 ± 21.2 | 21.0 ± 21.2 | 183.0 ± 86.2 | 45.5 ± 21.9 | 137.0 ± 21.2 | 33.0 ± 4.2 | 143.0 ± 12.7 |  | 0.55 | 30.7 |  | 259.0 ± 21.2 | 78.0 ± 18.3 | IC50 ([8]; SKOV3): 55.8 µM; IC50 [10]: 47.8 µM
